Test results taken from patent US7135572B2 (CJ Corp, priority 2001, dated 2006).

Columns and labels:
cyclooxygenase-1 = target: T1, cyclooxygenase-1 (Homo sapiens, UniProt P23219); assay: Inhibition of cyclooxygenase-1 in U-937 cells (PGE2 quantitation); format: cell-based; conditions: for Inhibitory effects of cyclooxygenase (COX): COX-1: U-937 cells
T1 construct: The cultured U-937 (humane lymphoma cell, obtained from Korean cell line bank) was centrifuged to collect the pellet; endogenous in cells; host or cells: U-937 (human lymphoma cell line, Korean cell line bank)
T1 sequence (P23219 24-599): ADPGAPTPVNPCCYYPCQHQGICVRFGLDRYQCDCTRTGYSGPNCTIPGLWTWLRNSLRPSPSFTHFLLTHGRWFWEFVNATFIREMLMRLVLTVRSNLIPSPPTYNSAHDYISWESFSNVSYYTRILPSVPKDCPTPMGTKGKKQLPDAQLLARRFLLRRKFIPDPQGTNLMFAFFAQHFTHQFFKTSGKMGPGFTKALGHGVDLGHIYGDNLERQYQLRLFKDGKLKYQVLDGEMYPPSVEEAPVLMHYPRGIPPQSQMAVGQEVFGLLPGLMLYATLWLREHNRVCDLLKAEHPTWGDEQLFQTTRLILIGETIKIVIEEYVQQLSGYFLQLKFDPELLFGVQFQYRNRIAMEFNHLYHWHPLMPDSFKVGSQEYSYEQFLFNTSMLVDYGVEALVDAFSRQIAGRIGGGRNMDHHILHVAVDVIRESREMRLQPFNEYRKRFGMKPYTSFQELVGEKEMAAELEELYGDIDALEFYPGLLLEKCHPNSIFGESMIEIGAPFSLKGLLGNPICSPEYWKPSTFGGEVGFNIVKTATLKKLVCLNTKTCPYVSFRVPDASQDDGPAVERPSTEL
Experimental: (§1) In order to investigate pharmacologically the selective inhibition activity against cyclooxygenase-2 enzyme, the inhibitive effects against cyclooxygenase-1 and cyclooxygenase-2 were measured by two methods as follows.
Then, the pellet was diluted with 1×HBSS(Hank's balanced salt solutin) at the concentration of 1×10^6 cells/ml, and 1 ml of them was transferred into each well of 12-well plates, and then dissolved with DMSO. 5μl of the diluted sample solution, and 5μl of DMSO vehicle were added therein and mixed, and the mixture was cultured at 37° C. in Co2 incubator for 15 minutes. Arachidonic acid as a substrate was dissolved in ethanol to prepare a stock solution with a concentration of 10 mM, followed by diluting with 1×HBSS to prepare the solution of 1 mM. 10 μl of 1 mM Arachidonic acid solution was added to each of the treated wells, and the mixture was cultured at 37° C. in CO2 incubator for 30 minutes. The cell solution of each well was collected in the centrifuge tube and was centrifuged at 4° C. for 5 minutes at 10,000 rpm. As PGE2 existed in the supernatant separated from collected cell, the concentration of PGE2 was quantitated by using monoclonal kit from Cayman Chemicals, and the concentration of samples and vehicle were compared to estimate the inhibition ratio (%) of each compound against cyclooxygenase-1. Ultimately, the inhibition effect against the cyclooxygenase-1 enzyme was obtained from the result.

cyclooxygenase-2 = target: T2, cyclooxygenase-2 (Mus musculus, UniProt Q05769); assay: Inhibition of cyclooxygenase-2 in Raw 264.7 cells treated with interferon γ and LPS (PGE2 EIA); format: cell-based; conditions: for Inhibitory effects of cyclooxygenase (COX): COX-2: Raw 264.7 cells
T2 construct: endogenous in cells; host or cells: Raw 264.7 (Korean cell line bank), aspirin-pretreated, induced with interferon gamma and LPS
T2 sequence (Q05769 18-604): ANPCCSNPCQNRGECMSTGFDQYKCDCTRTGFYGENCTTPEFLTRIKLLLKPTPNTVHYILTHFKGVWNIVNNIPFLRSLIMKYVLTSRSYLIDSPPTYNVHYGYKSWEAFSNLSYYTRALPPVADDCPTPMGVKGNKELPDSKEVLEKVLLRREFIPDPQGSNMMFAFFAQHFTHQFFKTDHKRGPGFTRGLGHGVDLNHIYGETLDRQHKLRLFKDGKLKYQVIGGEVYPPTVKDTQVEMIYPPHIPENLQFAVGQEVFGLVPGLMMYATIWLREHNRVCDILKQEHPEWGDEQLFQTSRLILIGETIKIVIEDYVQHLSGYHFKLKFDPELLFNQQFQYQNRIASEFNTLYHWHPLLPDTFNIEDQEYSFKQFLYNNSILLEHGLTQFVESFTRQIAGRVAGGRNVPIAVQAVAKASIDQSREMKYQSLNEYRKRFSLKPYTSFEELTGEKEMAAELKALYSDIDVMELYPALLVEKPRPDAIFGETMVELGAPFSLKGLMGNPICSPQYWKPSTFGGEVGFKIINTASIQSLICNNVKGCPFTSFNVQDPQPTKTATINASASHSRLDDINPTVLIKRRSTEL
Experimental: as §1
And then, each samples were replaced with new media and cultured for 30 minutes. In addition, the samples was treated with 100 units/ml of interferon Υ and 100 ng/ml of lipopolysaccharide(LPS), and cultured for 18 hours. Then, the media was transferred to other tubes and the PGE 2 was quantitated by using EIA kit from Cayman Chemicals.

| Inhibitory effects of cyclooxygenase (COX): COX-1 (cyclooxygenase-1; 3 μM) | Inhibitory effects of cyclooxygenase (COX): COX-1 (cyclooxygenase-1; 10 μM) | Inhibitory effects of cyclooxygenase (COX): COX-1 (cyclooxygenase-1; 30 μM) | Inhibitory effects of cyclooxygenase (COX): COX-2 (cyclooxygenase-2; 30 nM) | Inhibitory effects of cyclooxygenase (COX): COX-2 (cyclooxygenase-2; 100 nM) | Inhibitory effects of cyclooxygenase (COX): COX-2 (cyclooxygenase-2; 300 nM) | inhibition effect against cyclooxygenase-1 compared with Celecoxib (in words) (cyclooxygenase-1; same condition as Celecoxib) | selectivity of cyclooxygenase-2 compared with the comparative substance (in words) (cyclooxygenase-2; COX-2 versus COX-1) | inhibition effect against cyclooxygenase-2 compared with Celecoxib (in words) (cyclooxygenase-2; low concentration, same condition as Celecoxib) | Compound |
| --- | --- | --- | --- | --- | --- | --- | --- | --- | --- |
| 44.7 % inhibition | 56.7 % inhibition | 75.6 % inhibition | 43.9 % inhibition | 48.8 % inhibition | 67.8 % inhibition |  |  |  | Cc1nc(-c2cccc(Cl)c2)n(-c2ccc(S(N)(=O)=O)cn2)n1 [Example 21, 6-[5-(3-chloro-phenyl)-3-methyl-[1,2,4]triazole-1-yl]-pyridine-3-sulfonic acid amide] |
| 54.0 % inhibition | 61.3 % inhibition | 67.2 % inhibition | 25.0 % inhibition | 25.2 % inhibition | 37.7 % inhibition |  |  |  | COc1ccccc1-c1nc(C)nn1-c1ccc(S(N)(=O)=O)cc1 [Example 11, 4-[5-(2-methoxy-phenyl)-3-methyl-[1,2,4]triazole-1-yl]-benzenesulfonamide] |
| 36.9 % inhibition | 53.4 % inhibition | 67.8 % inhibition | 28.8 % inhibition | 34.4 % inhibition | 45.7 % inhibition |  |  |  | Cc1nc(-c2ccc(F)cc2)n(-c2ccc(S(N)(=O)=O)cc2)n1 [Example 2, 4-[5-(4-fluoro-phenyl)-3-methyl-[1,2,4]triazole-1-yl]-benzenesulfonamide] |
| 38.8 % inhibition | 42.0 % inhibition | 45.6 % inhibition | 42.1 % inhibition | 54.2 % inhibition | 68.8 % inhibition |  |  |  | COc1cccc(-c2nc(C)nn2-c2ccc(S(N)(=O)=O)cc2)c1 [Example 10, 4-[5-(3-methoxy-phenyl)-3-methyl-[1,2,4]triazole-1-yl]-benzenesulfonamide] |
| 15.1 % inhibition | 26.8 % inhibition | 31.1 % inhibition | 27.3 % inhibition | 29.8 % inhibition | 36.2 % inhibition |  |  |  | COc1cc(OC)cc(-c2nc(C)nn2-c2ccc(S(N)(=O)=O)cn2)c1 [Example 22, 6-[5-(3,5-dimethoxy-phenyl)-3-methyl-[1,2,4]triazole-1-yl]-pyridine-3-sulfonic acid amide] |
| 72.9 % inhibition | 73.1 % inhibition | 85.4 % inhibition | 33.9 % inhibition | 38.8 % inhibition | 57.8 % inhibition |  |  |  | Cc1nc(-c2ccc(Cl)cc2)n(-c2ccc(S(C)(=O)=O)cc2)n1 [Example 28, 5-(4-chloro-phenyl)-1-(4-methanesulfonyl-phenyl)-3-methyl-1H-[1,2,4]triazole] |
| 24.5 % inhibition | 43.2 % inhibition | 55.1 % inhibition | 32.4 % inhibition | 34.1 % inhibition | 85.2 % inhibition |  |  |  | Cc1nc(-c2ccc(Cl)cc2)n(-c2ccc(S(N)(=O)=O)cn2)n1 [Example 16, 6-[5-(4-chloro-phenyl)-3-methyl-[1,2,4]triazole-1-yl]-pyridine-3-sulfonic acid amide] |
| 12.8 % inhibition | 20.4 % inhibition | 28.9 % inhibition | 72.1 % inhibition | 99.8 % inhibition | 99.9 % inhibition | much lower level | better than any other substances | more excellent | Cc1nc(-c2ccccc2)n(-c2ccc(S(N)(=O)=O)cn2)n1 [Example 14, 6-(3-methyl-5-phenyl-[1,2,4]triazole-1-yl)-pyridine-3-sulfonic acid amide] |
| 5.6 % inhibition | 28.7 % inhibition | 32.7 % inhibition | 47.8 % inhibition | 66.9 % inhibition | 78.2 % inhibition |  |  |  | Cc1nc(-c2ccc(Br)cc2)n(-c2ccc(S(N)(=O)=O)cn2)n1 [Example 17, 6-[5-(4-bromo-phenyl)-3-methyl-[1,2,4]triazole-1-yl]-pyridine-3-sulfonic acid amide] |
| 0.1 % inhibition | 13.8 % inhibition | 29.7 % inhibition | 40.0 % inhibition | 74.1 % inhibition | 82.9 % inhibition |  |  |  | Cc1nc(-c2ccc(Cl)cc2)n(-c2ccc(S(N)(=O)=O)cc2)n1 [Example 3, 4-[5-(4-chloro-phenyl)-3-methyl-[1,2,4]triazole-1-yl]-benzenesulfonamide] |

| Compound | Inhibitory effects of cyclooxygenase (COX): COX-1 (cyclooxygenase-1; 3 μM) | Inhibitory effects of cyclooxygenase (COX): COX-1 (cyclooxygenase-1; 10 μM) | Inhibitory effects of cyclooxygenase (COX): COX-1 (cyclooxygenase-1; 30 μM) | Inhibitory effects of cyclooxygenase (COX): COX-2 (cyclooxygenase-2; 30 nM) | Inhibitory effects of cyclooxygenase (COX): COX-2 (cyclooxygenase-2; 100 nM) | Inhibitory effects of cyclooxygenase (COX): COX-2 (cyclooxygenase-2; 300 nM) | inhibition effect against cyclooxygenase-1 compared with Celecoxib (in words) (cyclooxygenase-1; same condition as Celecoxib) | selectivity of cyclooxygenase-2 compared with the comparative substance (in words) (cyclooxygenase-2; COX-2 versus COX-1) | inhibition effect against cyclooxygenase-2 compared with Celecoxib (in words) (cyclooxygenase-2; low concentration, same condition as Celecoxib) |
| --- | --- | --- | --- | --- | --- | --- | --- | --- | --- |
| COc1ccc(-c2nc(C)nn2-c2ccc(S(N)(=O)=O)cn2)cc1 [Example 19, 6-[5-(4-methoxy-phenyl)-3-mehtyl-[1,2,4]triazole-1-yl]-pyridine-3-sulfonic acid amide] | 46.9 % inhibition | 61.0 % inhibition | 77.6 % inhibition | 34.8 % inhibition | 43.1 % inhibition | 69.5 % inhibition |  |  |  |
| COc1ccc(-c2nc(C)nn2-c2ccc(S(N)(=O)=O)cc2)cc1OC [Example 12, 4-[5-(3,4-dimethoxy-phenyl)-3-mehtyl-[1,2,4]triazole-1-yl]-benzenesulfonamide] | 27.3 % inhibition | 34.3 % inhibition | 37.7 % inhibition | 30.3 % inhibition | 55.8 % inhibition | 70.4 % inhibition |  |  |  |
| Cc1ccc(-c2nc(C)nn2-c2ccc(S(N)(=O)=O)cn2)cc1 [Example 18, 6-(3-methyl-5-p-toly-[1,2,4]triazole-1-yl)-pyridine-3-sulfonic acid amide] | 50.4 % inhibition | 62.9 % inhibition | 75.1 % inhibition | 26.4 % inhibition | 37.5 % inhibition | 46.5 % inhibition |  |  |  |
